Test results taken from patent US20250122520A1, “Application of OBF1 Transcription Factor in Chromosome Doubling of Plant and Transgenic Plant Cultivation Method” (JIANGSU ACADEMY OF AGRICULTURAL SCIENCES, priority 2023, published 2025).

How the values were obtained:
Type in all cases: in vivo
petunia = assay: Ploidy identification by flow cytometer of OBF1 over-expressing petunias screened with kanamycin; conditions: for Proportion of chromosome doubling: OBF1 over-expression
Experimental: (9) Two days later, the leaves were transferred to a regeneration culture medium with corresponding screening resistance, the culture medium was replaced every two to three weeks, and the leaves waited for differentiation.
(14) The ploidy of the plants was identified by a flow cytometer, a doubling ratio of the plants under different treatment concentrations of kanamycin was calculated, and the results are shown in Table 2 and FIGS. 10A-10C.

tomatoes = assay: Ploidy identification by flow cytometer of OBF1 over-expressing tomatoes screened with kanamycin; conditions: tomato; for Proportion of chromosome doubling: OBF1 over-expression
Experimental: (5) The explants were transferred and placed into the screening culture medium; the photoperiod was 18/6 h, the temperature was 22-25° C., the humidity was 60%, and concentration settings of kanamycin and compositions of culture media were shown in Table 3;
(6) The ploidy of the plants was identified by a flow cytometer, the doubling ratio of the plants under different screening concentrations of kanamycin was calculated, and the results are shown in Table 4 and FIGS. 12A-12B.

tobaccoes = assay: Ploidy identification by flow cytometer of OBF1 over-expressing tobaccoes screened with kanamycin; conditions: tobacco; for Proportion of chromosome doubling: OBF1 over-expression
Experimental: (5) The leaves were transferred to a screening culture medium with corresponding screening resistance; the culture medium was replaced every two to three weeks, and the leaves waited for differentiation.
(8) The ploidy of the plants was identified by a flow cytometer, the doubling ratio of the plants under different screening concentrations of kanamycin was calculated, and the results are shown in Table 6 and FIGS. 14A-14B.

For `NC[C@H]1O[C@H](O[C@H]2[C@H](O)[C@@H](O[C@H]3O[C@H](CO)[C@@H](O)[C@H](N)[C@H]3O)[C@H](N)C[C@@H]2N)[C@H](O)[C@@H](O)[C@@H]1O` [kanamycin], the “Proportion of chromosome doubling” value (petunia; kanamycin 50 mg/L) was 0%, the “Proportion of chromosome doubling” value (petunia; kanamycin 100 mg/L) was 63.6% and the “Proportion of chromosome doubling” value (petunia; kanamycin 150 mg/L) was 80%. For the same compound, the Chromosome-doubled plant (petunia; kanamycin 50 mg/L, of 27 transgenic plants) was 0 plant, the Chromosome-doubled plant (petunia; kanamycin 100 mg/L, of 22 transgenic plants) was 14 plant and the Chromosome-doubled plant (petunia; kanamycin 150 mg/L, of 6 transgenic plants) was 4 plant. For the same compound, the “Proportion of chromosome doubling” value (tomatoes; kanamycin 50 mg/mL) was 0%, the “Proportion of chromosome doubling” value (tomatoes; kanamycin 100 mg/mL) was 60% and the Chromosome-doubled plant (tomatoes; kanamycin 50 mg/mL, of 30 transgenic plants) was 0 plant. The Chromosome-doubled plant (tomatoes; kanamycin 100 mg/mL, of 10 transgenic plants) was 6 plant, the “Proportion of chromosome doubling” value (tobaccoes; kanamycin 50 mg/mL) was 0% and the “Proportion of chromosome doubling” value (tobaccoes; kanamycin 100 mg/mL) was 33.3%. The Chromosome-doubled plant (tobaccoes; kanamycin 50 mg/mL, of 10 transgenic plants) was 0 plant and the Chromosome-doubled plant (tobaccoes; kanamycin 100 mg/mL, of 20 transgenic plants) was 6 plant.
